For data set [1], the system named is NKCC2. Description: NKCC2 activity: 3-hour urine sodium to creatinine ratio after acute IP furosemide challenge at day 10 of Ang II. Type of data set: in vivo, mice. The following applies: for urine sodium to creatinine ratio: 3-hour sodium excretion after IP furosemide. An excerpt:
(§1) Because IL-1 is secreted by macrophages, macrophage infiltration into the kidneys of the experimental animals was examined. After 4 weeks of hypertension, IL-1R KO kidneys contained more F4/80+ macrophages than WTs (18±1 vs. 14±2 per HPF; p=0.03). […] In turn, the KO group had enhanced renal mRNA expression of the NO-generating enzyme iNOS (1.7±0.3 vs. 1.0±0.2 au; p<0.05) and higher excretion of NO metabolites vs. WTs (152±46 vs. 60±15 nmol/mg Cr; p=0.05). NO inhibits renal sodium (Na) reabsorption, and during the 2″d wk of Ang II infusion when WT and KO BPs separated, only the KOs entered negative Na balance (−16.8±16.8 vs. WT 34.8±7.5 1-Jmol/day, p=0.01). To confirm that preserved NO bioavailability in the Ang 11-infused KOs led to their lower BP vs. WTs, we blocked NO generation in the groups with L-NAME starting on day 7 of Ang II when the WT and KO BPs were 179±3 vs. 165±6 mm Hg (p<0.01). By day 14, BPs converged (186±5 vs. 185±8; p=NS), (FIG. 2.) As NO is known to inhibit the NKCC2 sodium transporter in the kidney, NKCC2 activity at day 10 of Ang II was measured by quantitating urine sodium to creatinine ratios (UNa/UCr) 3 hours after an IP injection of saline with or without furosemide. […] Thus, reduced NKCC2 activity in the IL-1 R KOs protects them from Ang 11-induced sodium retention.
Therefore, to examine NKCC2 activity in the groups at day 10 of Ang II when the differences in sodium excretion was noted, 3-hour sodium excretion was quantitated in response to an acute intraperitoneal (IP) furosemide challenge (FIG. 8). In response to IP saline injection alone, the IL-1RKO mice had exaggerated urine sodium to creatinine ratios, consistent with their enhanced natriuresis in original balance study (237±38 vs. 120±9%; p=0.016). […] Without being bound by a particular theory, it is believed that IL-1 receptor activation stimulates renal sodium reabsorption via NKCC2-mediated sodium transport during Ang II-dependent HTN.

Data set [2] deals with NO generation. As to the kind of experiment: Blockade of NO generation with L-NAME in Ang II-infused WT and IL-1R KO mice, blood pressure. The following applies: L-NAME in drinking water from day 7 of Ang II, by day 14. Type of data set: in vivo.
Source text: as §1, with “retention. […]” for “retention.”

The test system of data set [3] is patients with rheumatic diseases. The note with it: in vivo; cited from earlier work.
Data set [4] relates to Ang II-infused mice. Description: Target organ damage (cardiac hypertrophy, albuminuria) in Ang II-induced hypertension. Type of data set: in vivo. The following applies: Ang II-infused mice treated with anakinra. The protocol:
For example, the Ang 11-infused IL-1 R KO mice had less cardiac hypertrophy than WJ mice as measured by heart weight/body weight ratios (7.5±0.9 vs. 9.3±0.8 mg/g, p<0.001). Loss of albumin in the urine is a marker for kidney glomerular damage in humans, and Ang 11-infused IL-1 R KO mice had nearly 40% less in albuminuria than Ang 11-infused WT animals (5.90±0.93 vs. 9.38±1.43 mg/mg Cr; p=0.05). […] Thus, the lower blood pressures in IL-1 receptor-deficient mice led to reduced hypertensive damage to the heart and kidney.
Uni-nephrectomized IL-1 R-deficient(IL-1R KO) and wild-type (WT) mice was chronically infused with (1000 ng/kg/min) for 4 weeks using an implanted osmotic mini-pump after measurement of baseline blood pressures. The mice were then treated with vehicle or anakinra (50 mg/kg/day IP) once daily beginning 3 days prior to and continuing throughout the Ang II infusion period (FIG. 3). Blood pressure was monitored continuously using radiotelemetry.
Next, levels of albuminuria, which is a marker for kidney damage, were measured in Ang II-infused IL-1R Kos and wild type mice. It was observed that the levels of albuminuria were reduced by 37% in the IL1R KO mice vs. the wild type: 5899±929 vs. 9380±1423, n=9,10, p=0.052 (37.1% reduction); for 24 hour albuminuria, 3574 vs. 5082, p=0.0810 (30.4% reduction).

Data set [5] concerns wild-type mice in AngII-dependent hypertension model. Description: Ang II-dependent hypertension model, blood pressure by radiotelemetry. Format: in vivo. As to the method: To study the role of IL-1 receptor (IL-1 R) activation in hypertension, uni-nephrectomized IL-1 R-deficient(IL-1R KO) and wild-type (WT) mice was chronically infused with angiotensin II (Ang II; 1000 ng/kg/min) for 4 weeks using an implanted osmotic mini-pump after measurement of baseline blood pressures. Chronic angiotensin II infusion in rodents is a widely accepted model of hypertension that leads to the same complications in rodents as those seen in humans including cardiac hypertrophy and kidney damage. Unilateral nephrectomy renders the remaining kidney more susceptible to injury in this hypertension model. In the experiments of the disclosure baseline mean arterial pressures (MAPs) were similar between groups.
In the present disclosure, Anakinra was administered at 50 mg/kg/day IP to wild-type mice in AngII-dependent hypertension model.
FIG. 3B illustrates the effect of treatment with 50 mg/kg/day IP once daily beginning 3 days prior to and continuing throughout the Ang II infusion period.
Uni-nephrectomized IL-1 R-deficient(IL-1R KO) and wild-type (WT) mice was chronically infused with (1000 ng/kg/min) for 4 weeks using an implanted osmotic mini-pump after measurement of baseline blood pressures. […] Blood pressure was monitored continuously using radiotelemetry.

Entries after “also recorded” stand apart in the source; their conditions may differ.

As to `NS(=O)(=O)c1cc(C(=O)O)c(NCc2ccco2)cc1Cl` [furosemide], the “urine sodium to creatinine ratio” value was 481±103% in data set [1] (IL-1R KO mice) and 453±56% in data set [1] (WT mice). In addition, in data set [1] (WT mice, 3 hours after IP furosemide), the “urine sodium to creatinine ratio (UNa/UCr)” value was 453±60 mmollmmol.
On to `COC(=O)[C@@H](N)CCCNC(=N)N[N+](=O)[O-]` [L-NAME, L-Nitroarginine Methyl Ester], for which the figures for the “blood pressure following L-NAME treatment” value in data set [2] (IL-1R KO mice) and in data set [2] (WT mice) were 185±8 mm Hg and 186±5 mm Hg, respectively.
Turning to “Anakinra: recombinant, nonglycosylated form of the human interleukin-1 receptor antagonist (IL-1Ra) with an added N-terminal methionine, 153 amino acids”, in data set [3], the “hypotension in clinical trials” value is recorded as “lack of hypotension”. The “decrease in cardiac hypertrophy” value in data set [4] (FIG. 9A) is recorded as “as profound as that seen in the IL-1R KO mice”. The decrease in albuminuria entry in data set [4] (FIG. 9B) is listed as “as profound as that seen in the IL-1R KO mice”. In addition, in data set [5] (50 mg/kg/day IP once daily, during Ang II infusion (1000 ng/kg/min)), the “ability to limit blood pressure elevation / protection from hypertension” value is listed as “as robust as genetic deletion of the receptor; also recorded: as profound as that seen in the IL-1R KO mice”. Besides, the “effect on baseline blood pressure” value in data set [5] (50 mg/kg/day IP, before Ang II infusion (Pre)) is given as “no impact; also recorded: no effect”.
